# Reference: ChEMBL document CHEMBL3885881, “DrugMatrix”
# Species on record: Rattus norvegicus
# Assay: DrugMatrix - Regimen: Daily Repeat
# Assay type: toxicity, organism-based, Sprague-Dawley
# Design: regimen Daily Repeat, gender Male, age 6-8 weeks
# Settings: in vivo, po, route oral GAVAGE, vehicle .5 % CMC; for ABSOLUTE BASOPHIL / ABSOLUTE EOSINOPHIL / ABSOLUTE LYMPHOCYTE / ABSOLUTE MONOCYTE / ABSOLUTE SEGMENTED NEUTROPHIL / BASOPHIL / EOSINOPHIL / ERYTHROCYTE COUNT / HEMATOCRIT / HEMOGLOBIN / LEUKOCYTE COUNT / LYMPHOCYTE / MEAN CORPUSCULAR HEMOGLOBIN / MEAN CORPUSCULAR HEMOGLOBIN CONCENTRATION / MEAN CORPUSCULAR VOLUME / MONOCYTE / NEUTROPHIL / NUCLEATED RED BLOOD CELLS / PLATELET COUNT: tissue Blood; for ALANINE AMINOTRANSFERASE / ALBUMIN / ALKALINE PHOSPHATASE / ASPARTATE AMINOTRANSFERASE / BLOOD UREA NITROGEN / CARBON DIOXIDE / CHLORIDE / CHOLESTEROL / CREATINE PHOSPHOKINASE / CREATININE / GLUCOSE / LACTATE DEHYDROGENASE / LIPASE / PHOSPHORUS / POTASSIUM / SODIUM / TOTAL BILIRUBIN / TOTAL PROTEIN / URIC ACID: tissue Plasma
# [1] = 60 mg/kg, 72 h, dose level Low, time 3 day
# [2] = 60 mg/kg, 120 h, dose level Low, time 5 day
# [3] = 435 mg/kg, 72 h, dose level High, time 3 day
# [4] = 435 mg/kg, 120 h, dose level High, time 5 day
compound,measurement,setting,value
CCCCCCCCNC(C)C(O)c1ccc(SC(C)C)cc1 (configuration not stated) [SULOCTIDIL],ABSOLUTE BASOPHIL,[1],0 CELLS/uL
same,ABSOLUTE EOSINOPHIL,[1],0 CELLS/uL
same,ABSOLUTE LYMPHOCYTE,[1],12874.67 CELLS/uL
same,ABSOLUTE MONOCYTE,[1],326.33 CELLS/uL
same,ABSOLUTE SEGMENTED NEUTROPHIL,[1],2365.67 CELLS/uL
same,BASOPHIL,[1],0%
same,EOSINOPHIL,[1],0%
same,ERYTHROCYTE COUNT,[1],5.66 x10E6/uL
same,HEMATOCRIT,[1],34.83%
same,HEMOGLOBIN,[1],13.2 G/DL
same,LEUKOCYTE COUNT,[1],15.57 x10E3/uL
same,LYMPHOCYTE,[1],81.33%
same,MEAN CORPUSCULAR HEMOGLOBIN,[1],23.33 pg
same,MEAN CORPUSCULAR HEMOGLOBIN CONCENTRATION,[1],37.93 G/DL
same,MEAN CORPUSCULAR VOLUME,[1],61.57 fL
same,MONOCYTE,[1],2.33%
same,NEUTROPHIL,[1],16.33%
same,NUCLEATED RED BLOOD CELLS,[1],0 /100WBC
same,PLATELET COUNT,[1],1204 x10E3/uL
same,ALANINE AMINOTRANSFERASE,[1],56.67 u/L
same,ALBUMIN,[1],4.23 G/DL
same,ALKALINE PHOSPHATASE,[1],425.33 u/L
same,ASPARTATE AMINOTRANSFERASE,[1],91.67 u/L
same,BLOOD UREA NITROGEN,[1],18 mg/dL
same,CARBON DIOXIDE,[1],25 mmol/L
same,CHLORIDE,[1],101.33 MEQ/L
same,CHOLESTEROL,[1],80 mg/dL
same,CREATINE PHOSPHOKINASE,[1],410.67 u/L
same,CREATININE,[1],0.23 mg/dL
same,GLUCOSE,[1],140.33 mg/dL
same,LACTATE DEHYDROGENASE,[1],416.33 u/L
same,LIPASE,[1],10.33 u/L
same,PHOSPHORUS,[1],14.3 mg/dL
same,POTASSIUM,[1],5.93 MEQ/L
same,SODIUM,[1],145.47 MEQ/L
same,TOTAL BILIRUBIN,[1],0.17 mg/dL
same,TOTAL PROTEIN,[1],6.27 G/DL
same,URIC ACID,[1],1.4 mg/dL
same,ABSOLUTE BASOPHIL,[2],0 CELLS/uL
same,ABSOLUTE EOSINOPHIL,[2],0 CELLS/uL
same,ABSOLUTE LYMPHOCYTE,[2],10938.33 CELLS/uL
same,ABSOLUTE MONOCYTE,[2],387.67 CELLS/uL
same,ABSOLUTE SEGMENTED NEUTROPHIL,[2],1740.67 CELLS/uL
same,BASOPHIL,[2],0%
same,EOSINOPHIL,[2],0%
same,ERYTHROCYTE COUNT,[2],5.48 x10E6/uL
same,HEMATOCRIT,[2],33.37%
same,HEMOGLOBIN,[2],13.03 G/DL
same,LEUKOCYTE COUNT,[2],13.07 x10E3/uL
same,LYMPHOCYTE,[2],83.67%
same,MEAN CORPUSCULAR HEMOGLOBIN,[2],23.83 pg
same,MEAN CORPUSCULAR HEMOGLOBIN CONCENTRATION,[2],39.1 G/DL
same,MEAN CORPUSCULAR VOLUME,[2],61.07 fL
same,MONOCYTE,[2],3%
same,NEUTROPHIL,[2],13.33%
same,NUCLEATED RED BLOOD CELLS,[2],0 /100WBC
same,PLATELET COUNT,[2],1209.67 x10E3/uL
same,ALANINE AMINOTRANSFERASE,[2],49.33 u/L
same,ALBUMIN,[2],4.03 G/DL
same,ALKALINE PHOSPHATASE,[2],405.67 u/L
same,ASPARTATE AMINOTRANSFERASE,[2],76 u/L
same,BLOOD UREA NITROGEN,[2],16.67 mg/dL
same,CARBON DIOXIDE,[2],29.33 mmol/L
same,CHLORIDE,[2],98.67 MEQ/L
same,CHOLESTEROL,[2],65.67 mg/dL
same,CREATINE PHOSPHOKINASE,[2],223 u/L
same,CREATININE,[2],0.21 mg/dL
same,GLUCOSE,[2],141.33 mg/dL
same,LACTATE DEHYDROGENASE,[2],112 u/L
same,LIPASE,[2],9.67 u/L
same,PHOSPHORUS,[2],13.63 mg/dL
same,POTASSIUM,[2],6.46 MEQ/L
same,SODIUM,[2],145.77 MEQ/L
same,TOTAL BILIRUBIN,[2],0.1 mg/dL
same,TOTAL PROTEIN,[2],5.97 G/DL
same,URIC ACID,[2],1.43 mg/dL
same,ABSOLUTE BASOPHIL,[3],0 CELLS/uL
same,ABSOLUTE EOSINOPHIL,[3],0 CELLS/uL
same,ABSOLUTE LYMPHOCYTE,[3],12119.33 CELLS/uL
same,ABSOLUTE MONOCYTE,[3],277.33 CELLS/uL
same,ABSOLUTE SEGMENTED NEUTROPHIL,[3],1536.67 CELLS/uL
same,BASOPHIL,[3],0%
same,EOSINOPHIL,[3],0%
same,ERYTHROCYTE COUNT,[3],5.33 x10E6/uL
same,HEMATOCRIT,[3],33.43%
same,HEMOGLOBIN,[3],12.9 G/DL
same,LEUKOCYTE COUNT,[3],13.93 x10E3/uL
same,LYMPHOCYTE,[3],87%
same,MEAN CORPUSCULAR HEMOGLOBIN,[3],24.23 pg
same,MEAN CORPUSCULAR HEMOGLOBIN CONCENTRATION,[3],38.6 G/DL
same,MEAN CORPUSCULAR VOLUME,[3],62.83 fL
same,MONOCYTE,[3],2%
same,NEUTROPHIL,[3],11%
same,NUCLEATED RED BLOOD CELLS,[3],0 /100WBC
same,PLATELET COUNT,[3],1170.67 x10E3/uL
same,ALANINE AMINOTRANSFERASE,[3],123 u/L
same,ALBUMIN,[3],4.1 G/DL
same,ALKALINE PHOSPHATASE,[3],384.67 u/L
same,ASPARTATE AMINOTRANSFERASE,[3],116 u/L
same,BLOOD UREA NITROGEN,[3],16 mg/dL
same,CARBON DIOXIDE,[3],24.67 mmol/L
same,CHLORIDE,[3],102 MEQ/L
same,CHOLESTEROL,[3],71.33 mg/dL
same,CREATINE PHOSPHOKINASE,[3],478.67 u/L
same,CREATININE,[3],0.2 mg/dL
same,GLUCOSE,[3],126.67 mg/dL
same,LACTATE DEHYDROGENASE,[3],279.67 u/L
same,LIPASE,[3],10.67 u/L
same,PHOSPHORUS,[3],11.9 mg/dL
same,POTASSIUM,[3],5.78 MEQ/L
same,SODIUM,[3],145.13 MEQ/L
same,TOTAL BILIRUBIN,[3],0.1 mg/dL
same,TOTAL PROTEIN,[3],5.8 G/DL
same,URIC ACID,[3],1.2 mg/dL
same,ABSOLUTE BASOPHIL,[4],0 CELLS/uL
same,ABSOLUTE EOSINOPHIL,[4],49.33 CELLS/uL
same,ABSOLUTE LYMPHOCYTE,[4],11875.33 CELLS/uL
same,ABSOLUTE MONOCYTE,[4],141.33 CELLS/uL
same,ABSOLUTE SEGMENTED NEUTROPHIL,[4],1867.33 CELLS/uL
same,BASOPHIL,[4],0%
same,EOSINOPHIL,[4],0.33%
same,ERYTHROCYTE COUNT,[4],6 x10E6/uL
same,HEMATOCRIT,[4],36.07%
same,HEMOGLOBIN,[4],13.93 G/DL
same,LEUKOCYTE COUNT,[4],13.93 x10E3/uL
same,LYMPHOCYTE,[4],85.33%
same,MEAN CORPUSCULAR HEMOGLOBIN,[4],23.27 pg
same,MEAN CORPUSCULAR HEMOGLOBIN CONCENTRATION,[4],38.67 G/DL
same,MEAN CORPUSCULAR VOLUME,[4],60.1 fL
same,MONOCYTE,[4],1%
same,NEUTROPHIL,[4],13.33%
same,NUCLEATED RED BLOOD CELLS,[4],0 /100WBC
same,PLATELET COUNT,[4],1140 x10E3/uL
same,ALANINE AMINOTRANSFERASE,[4],337 u/L
same,ALBUMIN,[4],3.63 G/DL
same,ALKALINE PHOSPHATASE,[4],249.33 u/L
same,ASPARTATE AMINOTRANSFERASE,[4],188 u/L
same,BLOOD UREA NITROGEN,[4],13.67 mg/dL
same,CARBON DIOXIDE,[4],25 mmol/L
same,CHLORIDE,[4],105 MEQ/L
same,CHOLESTEROL,[4],25 mg/dL
same,CREATINE PHOSPHOKINASE,[4],1012.33 u/L
same,CREATININE,[4],0.12 mg/dL
same,GLUCOSE,[4],128.67 mg/dL
same,LACTATE DEHYDROGENASE,[4],213 u/L
same,LIPASE,[4],8.67 u/L
same,PHOSPHORUS,[4],10.37 mg/dL
same,POTASSIUM,[4],5.67 MEQ/L
same,SODIUM,[4],144.2 MEQ/L
same,TOTAL BILIRUBIN,[4],0.1 mg/dL
same,TOTAL PROTEIN,[4],5.1 G/DL
same,URIC ACID,[4],1.23 mg/dL
